Results published in ChEMBL document CHEMBL6120951, “Viral Protein Dimerization Quality Control: A Design Strategy for a Potential Viral Inhibitor” (J Med Chem, 2024).

Tests used:
[1] = system: Jurkat; experiment: Cytotoxicity against human Jurkat cells assessed as reduction in cell growth incubated for 24 hrs by CellTiter-Glo luminescent cell viability assay; type: functional
[2] = Inhibition of SARS-CoV-2 MPro using Dabcyl-KTSAVLQSGFRKME-Edans as substrate preincubated for 15 mins followed by substrate addition measured after 30 mins by FRET assay; set-up: species or system Severe acute respiratory syndrome coronavirus 2
[3] = Cytotoxicity against African green monkey Vero cells assessed as reduction in cell viability after 72 hrs by MTT assay; type: toxicity, cell-based; conditions: chlorocebus sabaeus
[4] = system: MT4; experiment: Cytotoxicity against human MT4 cells assessed as reduction in cell viability incubated for 72 hrs by cell-titer glo assay; type: functional
[5] = system: Human immunodeficiency virus 1; experiment: Antiviral activity against HIV-1 3B infected in human MT4 cells assessed as reduction in viral replication; type: functional, organism-based; conditions: Human immunodeficiency virus 1, 3B
[6] = system: SARS-CoV-2; experiment: Antiviral activity against SARS-CoV-2 infected in African green monkey Vero cells assessed as reduction in viral replication; type: functional, organism-based; conditions: Severe acute respiratory syndrome coronavirus 2, Vero

For `Cc1[nH]c2ccccc2c1CC(=O)N[C@@H](Cc1ccccc1)C(=O)N(C)c1ccccc1`, the CC50 [1] was over 47000 nM.

For `O=C(O)c1cc(-c2ccc(-c3ccccc3)cc2)nc2ccccc12`, the IC50 [2] was 480 nM and the CC50 at 72 h [3] was over 50000 nM.

For `CC(C)Cc1sc(-c2nccs2)nc1C(=O)NCc1ccc(F)cc1`, the CC50 [4] was 50400 nM.

`N#Cc1ccc(Nc2nc(-c3cccnc3)nc3ccccc23)cc1` gave an EC50 [5] of 4000 nM and a CC50 [1] of over 10000 nM.

With `CC(=O)Nc1ccc(-c2cc(C)c(=O)n(Cc3ccc(Cl)cc3)n2)cc1` the CC50 [4] was over 100000 nM.

`O=C(CNC(=O)c1ccc(F)cc1)Nc1ccc(Cl)nc1Cl` gave a CC50 [4] of 144000 nM.

For `O=C(Nc1cc(F)c(F)c(F)c1)c1ccc(F)c(S(=O)(=O)N2CCC(O)CC2)c1`, the CC50 [4] was 14500 nM.

In the case of `CC(C)OCCCNC(=O)c1csc(Nc2cc(F)c(Cl)c(F)c2)n1`, the EC50 [6] is reported as 110 nM and the CC50 at 72 h [3] is reported as over 100000 nM.

For `CC(C)(C#Cc1ccc(-c2ccc(Cl)c3c(NS(C)(=O)=O)nn(CC(F)(F)F)c23)c([C@H](Cc2cc(F)cc(F)c2)NC(=O)Cn2nc(C(F)(F)F)c3c2C(F)(F)[C@@H]2C[C@H]32)n1)S(C)(=O)=O`, the EC50 [5] was 0.105 nM.

`N#Cc1ccc(C(=O)Nc2sc3c(c2C(=O)Nc2ccccc2O)CCCCC3)cc1` showed an EC50 [6] of 380 nM and a CC50 at 72 h [3] of over 250000 nM.

In the case of `O=C(Nc1cccc(Cl)c1)C1C2CCCCC21` (configuration not stated), the CC50 [4] is reported as over 100000 nM.

In the case of `CCN1C(=O)C(c2cc(O)cc(-c3cccnc3)c2)C(=O)N(c2ccccc2)c2cc(C(F)(F)F)ccc21` (configuration not stated), the EC50 [5] is reported as 480 nM.

Compound `O=C1NC(c2ccc(O)cc2)C2C(c3ccccc3)=NNC12` (configuration not stated) has an EC50 [5] of 1800 nM and a CC50 [1] of over 43000 nM.

`CC1=C(C(C2=C(C)c3ccccc3C2=O)c2ccc(C)cc2)C(=O)CC(c2ccccc2)C1` (configuration not stated) showed an EC50 [6] of 1820 nM.

For `CCc1cc(-c2ccc(C(F)(F)F)o2)n(-c2ccc3c(c2)nc(-c2ccccc2O)n3Cc2ccc(=O)[nH]c2)n1`, the EC50 [5] was 110 nM.

`O=C(NC1CCNCC1)c1n[nH]cc1NC(=O)c1c(Cl)cccc1Cl` [AT-7519] gave an EC50 [6] of 25000 nM.

Compound `CCOc1cc2ncc(C#N)c(Nc3ccc(F)c(Cl)c3)c2cc1NC(=O)/C=C/CN(C)C` [PELITINIB] has an EC50 [6] of 1250 nM.
